For this experiment, the target named is T1, soybean 15-lipoxygenase (Glycine max, UniProt P08170).
T1 construct: gene LOX1.1
T1 sequence (P08170 1-839): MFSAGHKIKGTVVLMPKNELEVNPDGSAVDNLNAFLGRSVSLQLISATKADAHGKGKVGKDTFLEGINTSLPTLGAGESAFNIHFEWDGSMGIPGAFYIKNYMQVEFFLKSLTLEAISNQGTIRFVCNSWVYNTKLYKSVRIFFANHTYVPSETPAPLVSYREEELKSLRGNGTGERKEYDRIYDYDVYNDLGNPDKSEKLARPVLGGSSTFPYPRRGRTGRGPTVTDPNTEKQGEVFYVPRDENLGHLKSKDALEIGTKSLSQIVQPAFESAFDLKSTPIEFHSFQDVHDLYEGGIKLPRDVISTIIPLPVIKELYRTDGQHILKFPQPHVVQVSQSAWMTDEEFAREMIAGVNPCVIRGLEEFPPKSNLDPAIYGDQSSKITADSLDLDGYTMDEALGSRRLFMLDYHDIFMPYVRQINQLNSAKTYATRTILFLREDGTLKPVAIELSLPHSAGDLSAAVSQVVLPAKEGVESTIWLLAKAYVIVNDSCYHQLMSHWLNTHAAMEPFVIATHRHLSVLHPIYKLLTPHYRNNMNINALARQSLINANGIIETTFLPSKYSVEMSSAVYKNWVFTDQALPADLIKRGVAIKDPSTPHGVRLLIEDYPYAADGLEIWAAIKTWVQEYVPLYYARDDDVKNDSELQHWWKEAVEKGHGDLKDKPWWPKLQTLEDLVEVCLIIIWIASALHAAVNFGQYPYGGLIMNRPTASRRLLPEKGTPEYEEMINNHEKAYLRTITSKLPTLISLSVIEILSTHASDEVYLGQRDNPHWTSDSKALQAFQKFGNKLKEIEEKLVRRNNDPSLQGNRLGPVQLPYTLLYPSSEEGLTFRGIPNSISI
Kind of experiment: spectrophotometric assay at […] nm of […](S)-HPODE formation from linoleic acid, pH […]. Format: biochemical.

The structures appear in SMILES notation. Where two headings read alike, the source gives them in different places.

A word on the IC50: it is the concentration at which inhibition is half-maximal. `CC1(C)CC[C@]2(C(=O)O)CC[C@]3(C)C(=CC[C@@H]4[C@@]5(C)CC[C@H](O)C(C)(C)[C@@H]5CC[C@]43C)[C@@H]2C1` [oleanolic acid] came in with an IC50 of 265 µM.

As to `C[C@H]1[C@H](C)CC[C@]2(C(=O)O)CC[C@]3(C)C(=CC[C@@H]4[C@@]5(C)CC[C@H](O)C(C)(C)[C@@H]5CC[C@]43C)[C@H]12` [ursolic acid], the IC50 (read-out: IC50) was determined as 175 µM.

The values are drawn from PMC2367043, “Effects of Ursolic Acid and its Analogues on Soybean 15-Lipoxygenase Activity and the Proliferation Rate of A human Gastric Tumour Cell Line” (Mediators of Inflammation, 1994).
